These are literature values, as cited in patent US20250049818A1, “PRENATAL SUPPLEMENT COMPOSITIONS FOR INCREASING BREASTMILK MICRONUTRIENT LEVELS” (SOCIÉTÉ DES PRODUITS NESTLÉ S.A., priority 2021, published 2025).

Like-named read-outs stand apart in the source and are kept apart here.

The conditions of series [1]: daily supplementation during pregnancy only, zinc 30 mg.
The conditions of series [2]: 10 mg/day for 120 days, Indian infants aged 6-35 months.
For series [3] the following is noted: 5 mg/day, Indian infants small for gestational age.
For series [4] the following is noted: children of developing world, meta-analysis.

On to `C=C1CC[C@H](O)C/C1=C/C=C1\CCC[C@]2(C)[C@@H]([C@H](C)CCCC(C)C)CC[C@@H]12` [vitamin D3, cholecalciferol], for which the “mean vitamin D activity (VDA) of human milk” value (“mean vitamin D activity (VDA)” below) (two months post-partum, 1,000 IU group) is given as 43 IU/L; the “mean vitamin D activity (VDA)” value (two months post-partum, 2,000 IU group) is 58 IU/L; the “mean vitamin D activity (VDA)” value (two weeks post-partum, 1,000 IU daily oral, 27-36 weeks of gestation) is listed as 51 IU/L; the “mean vitamin D activity (VDA)” value (two weeks post-partum, 2,000 IU daily oral, 27-36 weeks of gestation) is 74 IU/L.
As to `[Zn]` [zinc], the “human milk zinc concentration” value in series [1] (1 month postpartum) is 49.3 (31.3-62.1) μmol/L; in series [1] (6 months postpartum), 15.3 (11.8-27.2) μmol/L. Besides, the “reduction in incidence of acute lower respiratory infections” value in series [2] is 45%. For the same molecule, in series [3], the reduction in mortality was 68%. The reduced diarrhoea in series [4] was 18%.
